Measured values taken from patent US20130116277A1, “ALDO-KETO REDUCTASE SUBFAMILY 1C3 (AKR1C3) INHIBITORS” (priority 2007, published 2013).
pEC50, pIC50: −log10 of the molar value. Values joined by “and” are separate entries in the source; they are usually repeats but may differ in a detail not shown here. Identical values can stand only once. Like-named read-outs stand apart in the source and are kept apart here.

Assays:
ER-β = ER-β (Homo sapiens, UniProt Q92731); assay: ER-β ligand binding domain competitive binding with [3H]Estradiol
AKR1C3 [1] = target: T1, AKR1C3 (Homo sapiens, UniProt P42330); assay: Purified AKR1C3 enzyme assay, [14C]-A'dione to testosterone, TLC based; assay type: biochemical; set-up: GST (N); made in house; host or cells: bacterial culture, IPTG induced (E. coli BL21-DE3 is named only for the crystallography preparation)
T1 sequence (P42330 1-323): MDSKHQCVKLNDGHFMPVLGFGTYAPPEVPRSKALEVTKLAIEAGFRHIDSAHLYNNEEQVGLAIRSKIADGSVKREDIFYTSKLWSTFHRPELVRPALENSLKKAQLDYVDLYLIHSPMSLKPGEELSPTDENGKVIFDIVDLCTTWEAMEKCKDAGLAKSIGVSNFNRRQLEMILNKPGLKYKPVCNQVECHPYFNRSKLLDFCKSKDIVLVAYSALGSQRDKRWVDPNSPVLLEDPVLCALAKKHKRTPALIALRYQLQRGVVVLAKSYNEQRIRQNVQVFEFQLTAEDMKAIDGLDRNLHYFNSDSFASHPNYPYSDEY
Protocol: Perkin Elmer; […] American Radiolabeled Chemicals, St. Louis, Mo.). The reaction was stopped by the addition of 400 μl ethyl acetate, vortexed, and spun for […] at 2000 rpm. The upper layer was transferred to a new tube and air dried. The pellet was resuspended in 25 μl of methanol, spotted on TLC plates and fractionated in TLC chamber with 3:1 chloroform:ethyl acetate. Once the mobile phase reached the top, the plates were dried and exposed to a phosphoimager screen overnight. […] Perkin Elmer) was incubated at 37° C. for 60 min. The reaction was stopped by the addition of 400 μl ethyl acetate, vortexed, and spun for […] at 2000 rpm. The upper layer was transferred to a new tube and air dried. The pellet was resuspended in 25 μl of methanol, spotted on TLC plates and fractionated in TLC chamber with 3:1 chloroform:ethyl acetate. Once the mobile phase reached the top, the plates were dried and exposed to a phosphoimager screen overnight.

ER-alpha = target: T2, ER-alpha (Homo sapiens, UniProt P03372); assay: ER-alpha transactivation (ERE-LUC luciferase) in HEK-293 cells; assay type: cell-based; settings: for pEC50: read-out: Agonist ER-α; for pIC50: antagonist mode, in combination with estradiol, read-out: Antagonist ER-α;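 for all read-outs here: HEK-293 cells co-transfected with an ER-alpha expression plasmid, an ERE-driven firefly luciferase reporter and a CMV Renilla control, with the firefly signal normalized to Renilla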
T2 construct: expressed in transfected cells; host or cells: HEK-293
T2 sequence (P03372 1-595): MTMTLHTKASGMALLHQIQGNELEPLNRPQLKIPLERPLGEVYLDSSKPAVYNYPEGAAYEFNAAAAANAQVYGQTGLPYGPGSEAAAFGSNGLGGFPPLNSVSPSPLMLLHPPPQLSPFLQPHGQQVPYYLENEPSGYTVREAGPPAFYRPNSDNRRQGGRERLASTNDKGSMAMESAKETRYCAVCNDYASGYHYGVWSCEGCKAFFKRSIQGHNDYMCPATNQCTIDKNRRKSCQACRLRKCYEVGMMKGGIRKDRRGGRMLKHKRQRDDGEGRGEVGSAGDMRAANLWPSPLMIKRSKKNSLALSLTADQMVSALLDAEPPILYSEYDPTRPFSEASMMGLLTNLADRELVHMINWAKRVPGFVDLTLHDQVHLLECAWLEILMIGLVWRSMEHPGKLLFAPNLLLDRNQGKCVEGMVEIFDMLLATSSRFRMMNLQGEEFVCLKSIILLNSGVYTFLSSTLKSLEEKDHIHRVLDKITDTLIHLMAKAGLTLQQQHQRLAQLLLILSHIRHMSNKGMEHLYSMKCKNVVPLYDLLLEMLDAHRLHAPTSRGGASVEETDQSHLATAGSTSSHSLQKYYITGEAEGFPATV

ER-α = target: T3, ER-α (Homo sapiens, UniProt P03372); assay: ER-α ligand binding domain competitive binding with [3H]Estradiol
T3 sequence (P03372 311-547 limits assumed): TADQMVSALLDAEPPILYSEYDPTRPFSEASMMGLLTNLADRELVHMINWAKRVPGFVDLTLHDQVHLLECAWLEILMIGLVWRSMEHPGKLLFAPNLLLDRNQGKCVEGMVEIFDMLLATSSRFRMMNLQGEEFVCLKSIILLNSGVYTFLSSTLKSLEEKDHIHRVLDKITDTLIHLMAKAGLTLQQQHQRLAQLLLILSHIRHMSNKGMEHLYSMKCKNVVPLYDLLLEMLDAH

ER-beta = target: T4, ER-beta (Homo sapiens, UniProt Q92731); assay: ER-beta transactivation (ERE-LUC luciferase) in HEK-293 cells; assay type: cell-based; settings: for pEC50: read-out: Agonist ER-β; for pIC50: antagonist mode, in combination with estradiol, read-out: Antagonist ER-β;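 for all read-outs here: HEK-293 cells transiently transfected with an ER-β expression plasmid and ERE-LUC reporter, firefly luciferase read-out normalized to co-transfected Renilla luciferase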
T4 construct: expressed in transfected cells; host or cells: HEK-293

[2] = Liver microsome incubation (HLM Phase I and Phase I + II), LC-MS/MS; assay type: in vitro ADME, human; settings: for microsomal CLint: human, human liver microsomes
Protocol: Stock solutions of prespective AKR1C3 inhibitors were prepared in DMSO at 5 mM and were incubated with liver microsomes (0.1 mg/mL). Incubations were conducted at 37° C. in a shaking water bath for 10 minutes (microsomes). Incubation durations were selected based on time course study (microsomes) or published literature (recombinant enzymes). Prepared samples were analyzed using LC-MS/MS.

AKR1C3 [3] = target: T1, AKR1C3; assay: cell-based
[4] = 10 μM inhibitor, purified AKR1C3 TLC based enzyme assay, read-out: AKR1C3 inhibition at 10 μM
[5] = read-out: % inhibition from control HSD-5 (10 uM)
[6] = HLM Phase I + II, read-out: HLM Phase I + II CLint
[7] = HLM Phase I, read-out: HLM Phase I CLint

T4 sequence (Q92731 whole entry, species assumed): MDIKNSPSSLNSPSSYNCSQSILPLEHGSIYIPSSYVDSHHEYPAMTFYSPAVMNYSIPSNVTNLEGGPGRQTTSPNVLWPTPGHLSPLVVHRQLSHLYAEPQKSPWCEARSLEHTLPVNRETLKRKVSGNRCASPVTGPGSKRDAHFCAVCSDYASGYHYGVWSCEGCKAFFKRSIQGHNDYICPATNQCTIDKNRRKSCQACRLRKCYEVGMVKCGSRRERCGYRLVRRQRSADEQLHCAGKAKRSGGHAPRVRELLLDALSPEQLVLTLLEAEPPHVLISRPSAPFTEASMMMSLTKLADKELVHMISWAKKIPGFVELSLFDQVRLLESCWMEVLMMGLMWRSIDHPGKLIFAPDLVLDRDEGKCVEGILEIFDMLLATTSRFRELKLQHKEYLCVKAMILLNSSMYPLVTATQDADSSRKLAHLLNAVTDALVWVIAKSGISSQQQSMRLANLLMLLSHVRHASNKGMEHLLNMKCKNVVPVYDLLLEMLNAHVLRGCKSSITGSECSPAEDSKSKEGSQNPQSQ
Sequence of ER-β (Q92731 264-498 limits assumed, species assumed): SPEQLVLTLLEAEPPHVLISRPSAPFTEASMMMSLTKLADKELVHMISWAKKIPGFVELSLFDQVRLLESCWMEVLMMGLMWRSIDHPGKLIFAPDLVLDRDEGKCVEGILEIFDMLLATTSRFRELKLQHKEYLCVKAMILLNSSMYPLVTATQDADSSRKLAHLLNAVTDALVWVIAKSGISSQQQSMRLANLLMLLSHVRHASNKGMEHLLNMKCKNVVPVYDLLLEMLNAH

| SMILES | Ki (ER-β) [nM] | inhibition at 10 µM (AKR1C3 [1]; [4]) [%] | inhibition at 10 µM (AKR1C3 [1]; [5]) [%] | pEC50 (ER-alpha; agonist mode, drug alone) | pIC50 (ER-alpha) | Ki (ER-α) [nM] | pEC50 (ER-beta; agonist mode, drug alone) | pIC50 (ER-beta) | HLM Phase I + II T-1/2 ([2]; HLM Phase I + II) | microsomal CLint [2, 6] [µL/min/mg] | microsomal CLint [2, 7] [µL/min/mg] | pIC50 (AKR1C3 [3]) | HLM Phase I + II CLint ([2]; HLM Phase I + II) [µL/min/mg] | Agonist ER-α (ER-alpha; agonist mode, drug alone) | Agonist ER-β (ER-beta; agonist mode, drug alone) | HLM Phase I CLint ([2]; HLM Phase I) | HLM Phase I T-1/2 ([2]; HLM Phase I) |
| --- | --- | --- | --- | --- | --- | --- | --- | --- | --- | --- | --- | --- | --- | --- | --- | --- | --- |
| O=c1c2ccc(O)cc2c(-c2ccc(O)cc2)cn1-c1ccc(O)cc1 [Compound 6, 6-hydroxy-2,4-bis(4-hydroxyphenyl)isoquinolin-1(2H)-one] | 56.2 | 0 | 0 | < 5.00 | < 5.00 | 1420 | < 5.00 | 5.71 | – | – | – | – | – | – | – | – | – |
| COc1ccc(-c2cn(-c3ccc(CO)cc3)c(=O)c3ccc(OC)cc23)cc1 [Compound 10, 2-(4-hydroxymethyl)phenyl-6-methoxy-4-(4-methoxyphenyl)-isoquinolin-1(2H)-one] | > 2200 | 17 | 17 | < 5.00 | < 5.00 | > 1510 | < 5.00 | < 5.00 | – | – | – | – | – | – | – | – | – |
| O=c1c2ccc(O)cc2c(-c2ccc(O)cc2)cn1-c1ccc(CBr)cc1 [Compound 11, 2-(4-bromomethyl)phenyl-6-hydroxy-4-(4-hydroxyphenyl)isoquinolin-1(2H)-one] | > 2200 | 55 | 55 | < 5.00 | < 5.00 | – | < 5.00 | < 5.00 | 5.0 min | 138 | 84.1 | 5.29 | – | – | – | 119 µL/min/mg | 8.23 min and 5.90 min |
| O=c1c2ccc(O)cc2c(-c2ccc(O)cc2)cn1-c1ccc(CO)cc1 [Compound 14, 6-hydroxy-2-(4-(hydroxymethyl)phenyl)-4-(4-hydroxyphenyl)isoquinolin-1(2H)-one] | > 2200 | – | – | < 5.00 | < 5.00 | > 1510 | < 5.00 | < 5.00 | – | – | – | 5.88 | – | – | – | – | – |
| COc1ccc(-c2cn(-c3ccc(O)cc3)c(=O)c3ccc(O)cc23)cc1 [Compound 15b] | 252 | – | 47 | < 5.00 | < 5.00 | 2100 | < 5.00 | 6.89 | 3.7 min | 188 | 24.5 | – | – | – | – | – | 28.3 min |
| O=c1c2c(O)cc(O)cc2c(-c2ccccc2)cn1-c1ccc(O)cc1 [Compound 15h, 6,8-dihydroxy-2-(4-hydroxyphenyl)-4-phenylisoquinolin-1(2H)-one] | 3.03 | – | 0 | < 5.00 | 5.69 | – | < 5.00 | 7.27 | 11.4 min | 60.7 | 7.9 | 5.18 | – | – | – | – | 87.1 min |
| O=c1c2ccc(O)cc2c(-c2ccc(C(F)(F)F)cc2)cn1-c1ccc(CBr)c(O)c1 [Compound 26, 2-(4-(bromomethyl)-3-hydroxyphenyl)-6-hydroxy-4-(4-(trifluoromethyl)phenyl)isoquinolin-1(2H)-one] | > 2200 | 50 | 50 | < 5.00 | < 5.00 | > 1510 | < 5.00 | < 5.00 | – | – | – | 6.54 | – | – | – | – | – |
| O=c1c2ccc(O)cc2c(-c2ccc(C(F)(F)F)cc2)cn1-c1ccc(C(F)(F)F)cc1 [Compound 30, 6-hydroxy-2,4-bis(4-(trifluoromethyl)phenyl)isoquinolin-1(2H)-one] | > 2200 | 30 | 30 | < 5.00 | < 5.00 | > 1510 | < 5.00 | < 5.00 | 7.9 min | 88.1 | 6.8 | – | – | – | – | – | 102.3 min |
| O=c1c2ccc(O)cc2c(-c2ccc(C(F)(F)F)cc2)cn1-c1ccc(F)cc1 [Compound 34, 2-(4-fluorophenyl)-6-hydroxy-4-(4-(trifluoromethyl)phenyl)isoquinolin-1(2H)-one] | > 2200 | 10 | 10 | < 5.00 | < 5.00 | > 1510 | < 5.00 | < 5.00 | – | – | – | – | – | – | – | – | – |
| COc1ccc(-n2cc(-c3ccc(C(F)(F)F)cc3)c3cc(OC)ccc3c2=O)cc1 [Compound 35, 6-methoxy-2-(4-methoxyphenyl)-4-(4-(trifluoromethyl)phenyl)isoquinolin-1(2H)-one] | > 2200 | 0 | 0 | < 5.00 | < 5.00 | > 1510 | < 5.00 | < 5.00 | – | – | – | – | – | – | – | – | – |
| O=c1c2c(O)cc(O)cc2c(Br)cn1-c1cccc(O)c1 [ZW-315-047] | 7.23 | – | 30 | – | 5.76 | 503 | – | 5.66 | 1.56 min and 1.5 min | 442 | 16 | – | 460 | Partial agonist | Partial agonist | 20.16 µL/min/mg and 19.5 µL/min/mg and 23.7 µL/min/mg | 41.58 min and 33.55 min and 35.5 min and 29.3 min |

Now from value to compound, other results behind:

| Ki (ER-β) [nM] | inhibition at 10 µM (AKR1C3 [1]; [4]) [%] | inhibition at 10 µM (AKR1C3 [1]; [5]) [%] | pEC50 (ER-alpha; agonist mode, drug alone) | pIC50 (ER-alpha) | Ki (ER-α) [nM] | pEC50 (ER-beta; agonist mode, drug alone) | pIC50 (ER-beta) | HLM Phase I + II T-1/2 ([2]; HLM Phase I + II) | microsomal CLint [2, 6] [µL/min/mg] | microsomal CLint [2, 7] [µL/min/mg] | pIC50 (AKR1C3 [3]) | HLM Phase I + II CLint ([2]; HLM Phase I + II) [µL/min/mg] | Agonist ER-α (ER-alpha; agonist mode, drug alone) | Agonist ER-β (ER-beta; agonist mode, drug alone) | SMILES | HLM Phase I CLint ([2]; HLM Phase I) | HLM Phase I T-1/2 ([2]; HLM Phase I) |
| --- | --- | --- | --- | --- | --- | --- | --- | --- | --- | --- | --- | --- | --- | --- | --- | --- | --- |
| > 2200 | – | 10 | < 5.00 | < 5.00 | > 1510 | < 5.00 | < 5.00 | – | – | – | – | – | – | – | CCOC(=O)/C=C/c1cn(-c2ccc(OC)cc2)c(=O)c2c(O)cc(OC)cc12 [Compound 15j] | – | – |
| > 220 | – | 12 | – | – | > 151 | – | – | – | – | – | – | – | – | – | O=C(O)/C=C/c1cn(-c2ccc(O)cc2)c(=O)c2ccc(O)cc12 [Compound 15k] | – | – |
| 613 | – | – | – | – | > 1510 | – | – | – | – | – | 5.77 | – | – | – | O=C(O)/C=C/c1cn(-c2ccc(O)cc2)c(=O)c2c(O)cc(O)cc12 [Compound 15l, (E)-3-(6,8-dihydroxy-2-(4-hydroxyphenyl)-1-oxo-1,2-dihydroisoquinolin-4-yl)acrylic acid] | – | – |
